Experiment: Human HepG2 cell viability assay in 384 well format
Format: toxicity, cell-based
Design: dose 125 nL, time 70.5 hour; concentration not given beside the values
Details: HepG2 cells, read-out: Inhibition

Row | Structure (SMILES) | cytotoxicity at 70.5 h [%]
1 | COC(=O)c1ccc(CNC(C)c2ccc(S(C)(=O)=O)cc2)cc1 (stereo not given) | -1.14
2 | CC(=O)NCCNC(=O)NCCc1c(C)cc(C)cc1C | 0.521
3 | Cc1ccc(F)c(S(=O)(=O)NCc2cccc(N3CCOC3=O)c2)c1 | -4.03
4 | N#Cc1cnc(NCc2ccc(C(=O)NC3CC3)cc2)c(Cl)c1 | -4.64
5 | CS(=O)(=O)Cc1ccc(CNc2ncc(C#N)cc2Cl)cc1 | 1.58
6 | Cc1c(NC(=O)NC2CCCC2)cccc1C(=O)N1CCSCC1 | -3.56
7 | Cc1nc2scc(C)n2c1CNc1ccc(C(=O)O)cc1 | 19.2
8 | CCc1nc(CC(=O)N2CCC(C(=O)N3CCCC3)CC2)cs1 | -9.83
9 | CN(Cc1nnnn1C1CC1)c1cccc2ccccc12 | 0.192
10 | Cc1nc(CNC(=O)Nc2ccc(N(C)C)nc2)sc1C | -2.95
11 | O=C1C(Sc2nc(=O)ccn2C2CC2)CCN1c1ccccc1 (stereo not given) | 0.555
12 | O=C(CC(F)(F)F)NCC(O)c1ccc2ccccc2c1 (stereo not given) | -3.75
13 | CCOCC(=O)N1CC(=O)Nc2cc(Br)ccc21 | -6.53
14 | CCOCCC(=O)N1CC(=O)Nc2cc(Br)ccc21 | 22
15 | O=C(Nc1ccccc1C(=O)N1CCCC1)NC1CCOCC1 | -7.16
16 | CCC(CNS(=O)(=O)c1c[nH]cn1)Oc1ccccc1F (stereo not given) | -2.67
17 | CCc1nc(CC(=O)N2CCC(C(=O)N(CC)CC)CC2)cs1 | -11.2
18 | O=C(c1cccnc1)N(CCO)Cc1cc(Br)ccc1F | -3.63
19 | Cc1cc(OC(F)F)c(C(=O)N2CC[C@H](O)C2)s1 | -6.12
20 | Cc1cc(C(=O)CN2CCN(c3ncccn3)CC2)c(C)n1C(C)C | 12.3
21 | O=C(c1ccc(=O)[nH]n1)N(CCO)Cc1cc(Br)ccc1F | -5.4
22 | O=C(c1ccccn1)N(CCO)Cc1cc(Br)ccc1F | 17.2
23 | CC(=O)N1CCCN(C(=O)c2ccc(Sc3ccccn3)cc2)CC1 | -8.48

Row | Structure (SMILES) | cytotoxicity at 70.5 h [%]
24 | COc1ccccc1C1(CNCc2ccc(C#N)cc2)CCOCC1 | -6.31
25 | Cc1noc(C(C)NC(=O)[C@@H](C)NC(=O)OC(C)(C)C)n1 (stereo not given in full) | -3.59
26 | Cc1noc(CNC(=O)[C@@H](C)NC(=O)OC(C)(C)C)n1 | -2.55
27 | CCC(CC)(CNC(=O)NC1CCCC1(C)C)S(C)(=O)=O (stereo not given) | -7.23
28 | Cn1cnnc1C1CCCN1C(=O)Nc1cccc(OC(F)F)c1 (stereo not given) | -1.48
29 | Cc1cc(OC(F)F)c(C(=O)N2CCC(N(C)C)CC2)s1 | 31.3
30 | COc1ccccc1C1(CNCc2ccc([S+](C)[O-])cc2)CC1 (stereo not given) | -6.54
31 | COc1ccc(OC)c(-n2nnnc2SCC2CCCN(C)C2)c1 (stereo not given) | -3.08
32 | O=C(c1cccc(CNC/C=C/c2ccccc2)c1)N1CCCC1 | 4.26
33 | CCc1sc(-c2nnc(CNCCn3cccn3)o2)cc1C | -0.343
34 | CC(NCCCC#N)c1ccc(-c2cccnc2)cc1 (stereo not given) | -2.12
35 | Cc1ccc(S(=O)(=O)NC(=O)COc2ccc(CC#N)cc2)s1 | 2.71
36 | CC1CCN(c2ccc(CNC(=O)NCCn3ccnc3)cn2)CC1 | -0.689
37 | COCCCNC(=O)NCc1ccc(N2CCOC(C)C2)nc1 (stereo not given) | 17.1
38 | Cc1cc(CS(=O)(=O)C(C)c2ccc(F)cc2)on1 (stereo not given) | -5.55
39 | CCc1sc(C(=O)Nc2cnn(CC(=O)NC3CC3)c2)cc1C | -8.41
40 | CC1(C)Oc2ccc(NC(=O)c3ccc(=O)[nH]n3)cc2O1 | -12.5
41 | CN(C)c1ncc(CNC(=O)Nc2ccccc2C(F)(F)F)n1C | 18.7
42 | Cc1ccc2c(c1)OC(C)CN2C(=O)Cc1ccc(C)nc1 (stereo not given) | -0.93
43 | CC(CCN(C)C)NC(=O)c1cccc(C(F)(F)F)c1F (stereo not given) | -1.47
44 | Cc1csc(N(C)C(=O)C(c2c(F)cccc2Cl)N(C)C)n1 (stereo not given) | -0.598
45 | CC(CCN1CCOCC1)NC(=O)c1cccc(C(F)(F)F)c1F (stereo not given) | -5.66
46 | Cc1c(C(C)NC(=O)Nc2ccc(F)c(F)c2)cnn1C (stereo not given) | -3.96

Row | Structure (SMILES) | cytotoxicity at 70.5 h [%]
47 | COc1ccc2cc(CNc3c(C)nn(C(C)C)c3C)ccc2c1 | -0.974
48 | O=C(CN1CCCC(c2ccn[nH]2)C1)Nc1nc2c(s1)CCCC2 (stereo not given) | 1.65
49 | CCN(Cc1noc(CC(C)C)n1)Cc1ccccc1C | -1.58
50 | Cc1nnc(NC(=O)CN2CCCC(c3ccn[nH]3)C2)s1 (stereo not given) | 18.6
51 | CC(C)NC(=O)CC(C)NCc1ccc(F)cc1Cl (stereo not given) | -3.7
52 | CC(C)NC(=O)CC(C)NCc1cc(Cl)ccc1F (stereo not given) | -3.06
53 | Cc1ccc2cc(C(=O)N3CCC(O)(C(F)(F)F)CC3)ccc2n1 | 0.437
54 | Cc1cc(C2CCCN(CC(=O)Nc3nc4c(s3)CCC4)C2)n[nH]1 (stereo not given) | 18.9
55 | CC1CCCN1C1CCN(C(=O)c2cccc(-c3ccoc3)c2)CC1 (stereo not given) | 10.8
56 | CCS(=O)(=O)c1ccc(NCc2csc(C(C)C)n2)cc1 | 4.81
57 | Cc1ccc(OCCNC(=O)C2CCOCC2)c(C)c1 | 35.7
58 | Cc1noc(C)c1CN(C)c1ncnc2ccccc12 | -6.84
59 | c1ccc2[nH]c(C3CCN(Cc4nc(C5CC5)no4)CC3)cc2c1 | -1.32
60 | COc1cccc(OCc2nnc3n2N=C(C(C)(C)C)CS3)c1 | -8.92
61 | CN(CC(N)=O)CC(=O)N(C1=CCCCC1)C1CC1 | -10.7
62 | c1ccc2[nH]c(C3CCN(Cc4noc(C5CC5)n4)CC3)cc2c1 | -3.83
63 | CCOc1ccc(C#N)cc1NC(=O)N1CCCC(NC(=O)CC)C1 (stereo not given) | -7.12
64 | CCNC(=O)C1CCCN(C(=O)Nc2cc(C#N)ccc2OCC)C1 (stereo not given) | 0.887
65 | Cc1oc(C(=O)O)cc1S(=O)(=O)Nc1cccc(-c2nccs2)c1 | 6.48
66 | Cc1ccc(NS(=O)(=O)c2cc(C(=O)O)oc2C)c(Br)c1 | -6.35
67 | O=C(CN1CCSCC1c1ccccc1)N1CCCC1 (stereo not given) | 20
68 | Cc1cccc(NS(=O)(=O)c2cc(C(=O)O)oc2C)c1 | -0.669
69 | CN(C)C(=O)c1cc(NC(=O)N2CCCC(C(F)(F)F)C2)ccn1 (stereo not given) | -1.06

Row | Structure (SMILES) | cytotoxicity at 70.5 h [%]
70 | Cc1oc(C(=O)O)cc1S(=O)(=O)Nc1ccc(Cl)c(Cl)c1 | -3.75
71 | CC(C)(C)c1nnc(CN2CCC(c3cc4ccccc4[nH]3)CC2)o1 | 17.4
72 | CN(CC(C)(C)O)C(=O)Nc1ccc(F)c(-n2cccc2)c1 | -9.2
73 | CNC(=O)C(C)CN(C)C(=O)Nc1ccc(Cl)cc1-n1cccc1 (stereo not given) | 4.05
74 | CN(CC(N)=O)C(=O)c1cn(-c2ccc(Br)cc2)cn1 | 23.1
75 | CC(CO)N(C)C(=O)c1cn(-c2ccc(Br)cc2)cn1 (stereo not given) | -7.34
76 | CS(=O)(=O)CC1(CNc2ccc(C#N)c(C(F)(F)F)c2)CC1 | -3.35
77 | Cc1nc(CC(C)C)sc1C(=O)N1CCC(C2(C)OCCO2)CC1 | 2.11
78 | CC(C)c1nc(CNc2ccc(CNS(C)(=O)=O)cc2)cs1 | -8.66
79 | Cc1nc(CC(C)C)sc1C(=O)N1CCC1 | -2.02
80 | CC(=O)N1CCN(CCNc2ncc(Br)cc2C)CC1 | -1.98
81 | CCOCC(=O)Nc1ncn(Cc2cccc(Br)c2)n1 | 17.2
82 | Cc1nn(C)c(Oc2cccc(F)c2)c1NC(=O)C1CCCO1 (stereo not given) | -6.09
83 | CCOCc1ccccc1NC(=O)NC1CCN(C(=O)OCC)CC1 | -5.57
84 | CCOCc1ccccc1NC(=O)NC1CCN(CC(F)(F)F)C1 (stereo not given) | -6.42
85 | CCOCc1ccccc1NC(=O)NC1CCN(c2ccccc2)C1 (stereo not given) | -4.36
86 | CCOCc1ccccc1NC(=O)NC1CCN(C2CCCC2)C1 (stereo not given) | -6.21
87 | CS(=O)(=O)Cc1nc(CN2CCc3ccccc3CC2)cs1 | 5.16
88 | O=C(O)c1ccc(S(=O)(=O)Nc2ccccc2CC(F)(F)F)c(F)c1 | -15.6
89 | Cc1cc(Cl)c2c(c1)C1(NC(=O)c3cccnc3N1)C(=O)N2 (stereo not given) | -1.82
90 | CC1(C)CN(Cc2csc(CS(C)(=O)=O)n2)Cc2ccccc21 | -0.447
91 | NC(=O)C1(CNCc2csc(-c3cccs3)n2)CCOCC1 | -6.81
92 | O=C(NCc1nnc2n1CCCCC2)N1CCC2(CCCCC2)C1 | -6.29

Row | Structure (SMILES) | cytotoxicity at 70.5 h [%]
93 | CCN(C(=O)CCn1cccn1)C1CC1 | -5.79
94 | CC(Cn1cccn1)NCc1csc(-c2ccc(F)cc2)n1 (stereo not given) | 5.69
95 | OC1(CNC2CCN(c3ccccn3)CC2)CCc2ccccc21 (stereo not given) | -6.83
96 | CSC1(CNC(=O)N(C)Cc2ccc(Cl)s2)CCOCC1 | 30.6
97 | O=C(COCc1ccccc1Cl)N1CCN(c2ncccn2)CC1 | 6.02
98 | CO[C@H]1CCN(S(=O)(=O)c2cccs2)[C@H]1Cc1ccncc1 | -6.14
99 | Cn1ncc2c1C(COCC1CC1)CN(Cc1ccco1)C2 (stereo not given) | 4.98
100 | CN(C)C(=O)[C@H]1C[C@H]2OCC[C@H]2N(Cc2ccccn2)C1 | -2.93
101 | Cc1noc([C@H]2C[C@H]3OCC[C@H]3N(Cc3ccncc3)C2)n1 | -7.52
102 | c1ccc(CN2CCc3ncnc(-c4cncnc4)c3CC2)nc1 | 21.8
103 | CCCNCc1cn(Cc2ccccc2)nc1-c1cccnc1 | -8.99
104 | COC1COC2(CCN(c3ccc(C#N)cc3)CC2)C1 (stereo not given) | -5.93
105 | CCOCC(=O)N1Cc2nccn2CC(CN2CCCC2)C1 (stereo not given) | -11.5
106 | O=C1CO[C@@H]2CN(C3CCOCC3)C[C@H]2N1Cc1cccc(F)c1 | -6.55
107 | Cc1nc(CN2CCc3ncnc(-c4ccsc4)c3CC2)cs1 | -9.47
108 | Cc1nc(CN2CCc3ncnc(C4CC4)c3CC2)cs1 | -2.07
109 | CN(C)C(=O)[C@H]1C[C@H]2OCC[C@H]2N(Cc2ccc3c(c2)OCO3)C1 | 0.648
110 | O=C([C@H]1C[C@H]2OCC[C@H]2N(Cc2ccoc2)C1)N1CCCO1 | -5.69
111 | Cc1noc([C@@H]2C[C@H]3OCC[C@H]3N(CC3CCCC3)C2)n1 | -10.4
112 | CN(C)C(=O)COC1COC2(CCN(c3cccc(F)c3)CC2)C1 (stereo not given) | 2.89
113 | Cc1noc([C@H]2C[C@H]3OCC[C@H]3N(Cc3scnc3C)C2)n1 | -7.11
114 | CN1CC(=O)N(c2cccc(F)c2)CC12CCN(CCO)C2 (stereo not given) | -5.44
115 | c1csc(CN2CCCn3cnc(CN4CCCC4)c3C2)c1 | -2.7
